Results from PubChem BioAssay AID1919014 (Molecular Pharmacology Branch, DTP, NCI, 2023).
pIC50: −log10 of the molar value.

Test system: NCI-H1341 complex spheroids, percent test/control
Test: Anticancer human tumor NCI-H1341 cell line growth inhibition [AhR];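 note: spheroids exposed to agents for seven days before readout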
Settings: for pIC50: curve of first compound; for viability, T/C: stronger effect = lower value
Summary of the method: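 Agents were dosed in half-log steps down from roughly clinical Cmax, or from 10 microM where Cmax was unknown, alone and with AhR antagonists. Read-out: percent test/control growth of tumor spheroids containing HUVEC and MSC stromal cells.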

[1] = second compound 0.1 µM, first compound 0.0316 µM
[2] = second compound 0.1 µM, first compound 0.1 µM
[3] = second compound 0.1 µM, first compound 0.316 µM
[4] = second compound 0.1 µM, first compound 1 µM
[5] = second compound 0.1 µM, first compound 3.16 µM
[6] = second compound 0.1 µM, first compound 10 µM
[7] = second compound 0.316 µM, first compound 0.0316 µM
[8] = second compound 0.316 µM, first compound 0.1 µM
[9] = second compound 0.316 µM, first compound 0.316 µM
[10] = second compound 0.316 µM, first compound 1 µM
[11] = second compound 0.316 µM, first compound 3.16 µM
[12] = second compound 0.316 µM, first compound 10 µM
[13] = second compound 1 µM, first compound 0.0316 µM
[14] = second compound 1 µM, first compound 0.1 µM
[15] = second compound 1 µM, first compound 0.316 µM
[16] = second compound 1 µM, first compound 1 µM
[17] = second compound 1 µM, first compound 3.16 µM
[18] = second compound 1 µM, first compound 10 µM
[19] = second compound 3.16 µM, first compound 0.0316 µM
[20] = second compound 3.16 µM, first compound 0.1 µM
[21] = second compound 3.16 µM, first compound 0.316 µM
[22] = second compound 3.16 µM, first compound 1 µM
[23] = second compound 3.16 µM, first compound 3.16 µM
[24] = second compound 3.16 µM, first compound 10 µM
[25] = second compound 10 µM, first compound 0.0316 µM
[26] = second compound 10 µM, first compound 0.1 µM
[27] = second compound 10 µM, first compound 0.316 µM
[28] = second compound 10 µM, first compound 1 µM
[29] = second compound 10 µM, first compound 3.16 µM
[30] = second compound 10 µM, first compound 10 µM
[31] = second compound 0.1 µM, first compound 0.00949 µM
[32] = second compound 0.1 µM, first compound 0.03 µM
[33] = second compound 0.1 µM, first compound 0.0949 µM
[34] = second compound 0.1 µM, first compound 0.3 µM
[35] = second compound 0.316 µM, first compound 0.00949 µM
[36] = second compound 0.316 µM, first compound 0.03 µM
[37] = second compound 0.316 µM, first compound 0.0949 µM
[38] = second compound 0.316 µM, first compound 0.3 µM
[39] = second compound 1 µM, first compound 0.00949 µM
[40] = second compound 1 µM, first compound 0.03 µM
[41] = second compound 1 µM, first compound 0.0949 µM
[42] = second compound 1 µM, first compound 0.3 µM
[43] = second compound 3.16 µM, first compound 0.00949 µM
[44] = second compound 3.16 µM, first compound 0.03 µM
[45] = second compound 3.16 µM, first compound 0.0949 µM
[46] = second compound 3.16 µM, first compound 0.3 µM
[47] = second compound 10 µM, first compound 0.00949 µM
[48] = second compound 10 µM, first compound 0.03 µM
[49] = second compound 10 µM, first compound 0.0949 µM
[50] = second compound 10 µM, first compound 0.3 µM

SMILES: CC1(C)CCC(CN2CCN(c3ccc(C(=O)NS(=O)(=O)c4ccc(NCC5CCOCC5)c([N+](=O)[O-])c4)c(Oc4cnc5[nH]ccc5c4)c3)CC2)=C(c2ccc(Cl)cc2)C1 + CC(CO)NC(=O)c1cc(-c2ccc(Cl)cc2)nn(-c2cnn(C)c2)c1=O
- pIC50 (second compound 0.1 µM): 5.63
- pIC50 (second compound 0.316 µM): 5.67
- pIC50 (second compound 1 µM): 5.77
- pIC50 (second compound 3.16 µM): 5.74
- pIC50 (second compound 10 µM): 5.91
- viability, T/C [1]: 66.6%
- viability, T/C [2]: 74.9%
- viability, T/C [3]: 71.8%
- viability, T/C [4]: 71.1%
- viability, T/C [5]: 43%
- viability, T/C [6]: 12.9%
- viability, T/C [7]: 76.7%
- viability, T/C [8]: 76.5%
- viability, T/C [9]: 72.3%
- viability, T/C [10]: 63.8%
- viability, T/C [11]: 43.1%
- viability, T/C [12]: 11.7%
- viability, T/C [13]: 83.4%
- viability, T/C [14]: 74.4%
- viability, T/C [15]: 65.1%
- viability, T/C [16]: 61.4%
- viability, T/C [17]: 41.4%
- viability, T/C [18]: 11.3%
- viability, T/C [19]: 76.5%
- viability, T/C [20]: 88.8%
- viability, T/C [21]: 83.8%
- viability, T/C [22]: 63%
- viability, T/C [23]: 36.5%
- viability, T/C [24]: 12.4%
- viability, T/C [25]: 65.7%
- viability, T/C [26]: 84.7%
- viability, T/C [27]: 65.6%
- viability, T/C [28]: 54.1%
- viability, T/C [29]: 30.2%
- viability, T/C [30]: 9.65%

SMILES: CC1COCCN1c1cc(C2(S(C)(=N)=O)CC2)nc(-c2ccnc3[nH]ccc23)n1 (stereo not given) + CC(CO)NC(=O)c1cc(-c2ccc(Cl)cc2)nn(-c2cnn(C)c2)c1=O
- pIC50 (second compound 0.1 µM): 5.80
- pIC50 (second compound 0.316 µM): 5.96
- pIC50 (second compound 1 µM): 5.81
- pIC50 (second compound 3.16 µM): 5.83
- pIC50 (second compound 10 µM): 6.02
- viability, T/C [1]: 89.6%
- viability, T/C [2]: 83.2%
- viability, T/C [3]: 96.7%
- viability, T/C [4]: 64.9%
- viability, T/C [5]: 29.7%
- viability, T/C [6]: 21.9%
- viability, T/C [7]: 78.8%
- viability, T/C [8]: 93.5%
- viability, T/C [9]: 70.1%
- viability, T/C [10]: 51.1%
- viability, T/C [11]: 32.4%
- viability, T/C [12]: 20.4%
- viability, T/C [13]: 77.3%
- viability, T/C [14]: 88.5%
- viability, T/C [15]: 88.4%
- viability, T/C [16]: 57.1%
- viability, T/C [17]: 35.5%
- viability, T/C [18]: 19.6%
- viability, T/C [19]: 95.8%
- viability, T/C [20]: 86.3%
- viability, T/C [21]: 87.8%
- viability, T/C [22]: 58.6%
- viability, T/C [23]: 31.7%
- viability, T/C [24]: 17.6%
- viability, T/C [25]: 83.2%
- viability, T/C [26]: 84.9%
- viability, T/C [27]: 67.9%
- viability, T/C [28]: 52.1%
- viability, T/C [29]: 24.8%
- viability, T/C [30]: 18.8%

SMILES: CCN(c1cc(-c2ccc(CN3CCOCC3)cc2)cc(C(=O)NCc2c(C)cc(C)[nH]c2=O)c1C)C1CCOCC1 + CC(CO)NC(=O)c1cc(-c2ccc(Cl)cc2)nn(-c2cnn(C)c2)c1=O
- pIC50 (second compound 0.1 µM): < 5.52
- pIC50 (second compound 0.316 µM): < 5.52
- pIC50 (second compound 1 µM): < 5.52
- pIC50 (second compound 3.16 µM): < 5.52
- pIC50 (second compound 10 µM): < 5.52
- viability, T/C [31]: 89.1%
- viability, T/C [32]: 72.4%
- viability, T/C [33]: 84%
- viability, T/C [34]: 68.1%
- viability, T/C (second compound 0.1 µM, first compound 0.949 µM): 75.2%
- viability, T/C (second compound 0.1 µM, first compound 3 µM): 57.6%
- viability, T/C [35]: 81.9%
- viability, T/C [36]: 77%
- viability, T/C [37]: 77.9%
- viability, T/C [38]: 65.8%
- viability, T/C (second compound 0.316 µM, first compound 0.949 µM): 65.7%
- viability, T/C (second compound 0.316 µM, first compound 3 µM): 59.7%
- viability, T/C [39]: 91.7%
- viability, T/C [40]: 73.6%
- viability, T/C [41]: 78%
- viability, T/C [42]: 63%
- viability, T/C (second compound 1 µM, first compound 0.949 µM): 63.1%
- viability, T/C (second compound 1 µM, first compound 3 µM): 62%
- viability, T/C [43]: 84.1%
- viability, T/C [44]: 82.5%
- viability, T/C [45]: 74.9%
- viability, T/C [46]: 71.4%
- viability, T/C (second compound 3.16 µM, first compound 0.949 µM): 61.9%
- viability, T/C (second compound 3.16 µM, first compound 3 µM): 62.4%
- viability, T/C [47]: 67.5%
- viability, T/C [48]: 79.2%
- viability, T/C [49]: 73.3%
- viability, T/C [50]: 70.4%
- viability, T/C (second compound 10 µM, first compound 0.949 µM): 65.7%
- viability, T/C (second compound 10 µM, first compound 3 µM): 57.4%

SMILES: Nc1ncn(C2CC(O)C(CO)S2)c(=O)n1 (stereo not given) + CC(CO)NC(=O)c1cc(-c2ccc(Cl)cc2)nn(-c2cnn(C)c2)c1=O
- pIC50 (second compound 0.1 µM): 6.57
- pIC50 (second compound 0.316 µM): 6.66
- pIC50 (second compound 1 µM): 6.65
- pIC50 (second compound 3.16 µM): 6.67
- pIC50 (second compound 10 µM): 6.63
- viability, T/C (second compound 0.1 µM, first compound 0.000949 µM): 89.1%
- viability, T/C (second compound 0.1 µM, first compound 0.003 µM): 94.3%
- viability, T/C [31]: 91.2%
- viability, T/C [32]: 89.3%
- viability, T/C [33]: 63.6%
- viability, T/C [34]: 48.7%
- viability, T/C (second compound 0.316 µM, first compound 0.000949 µM): 94.6%
- viability, T/C (second compound 0.316 µM, first compound 0.003 µM): 91.5%
- viability, T/C [35]: 84.5%
- viability, T/C [36]: 89.8%
- viability, T/C [37]: 78.3%
- viability, T/C [38]: 39.2%
- viability, T/C (second compound 1 µM, first compound 0.000949 µM): 75.3%
- viability, T/C (second compound 1 µM, first compound 0.003 µM): 105%
- viability, T/C [39]: 91.8%
- viability, T/C [40]: 79.6%
- viability, T/C [41]: 76.2%
- viability, T/C [42]: 41.3%
- viability, T/C (second compound 3.16 µM, first compound 0.000949 µM): 86%
- viability, T/C (second compound 3.16 µM, first compound 0.003 µM): 96.1%
- viability, T/C [43]: 85.6%
- viability, T/C [44]: 82.7%
- viability, T/C [45]: 69.2%
- viability, T/C [46]: 42%
- viability, T/C (second compound 10 µM, first compound 0.000949 µM): 73.3%
- viability, T/C (second compound 10 µM, first compound 0.003 µM): 73.1%
- viability, T/C [47]: 79.1%
- viability, T/C [48]: 69.2%
- viability, T/C [49]: 63.6%
- viability, T/C [50]: 46%
